Experimental data published in patent US20080293801A1, “Solid Amorphous Dispersions of An Mtp Inhibitor For Treatment of Obesity” (PFizer Inc., priority 2003, published 2008).
“And” between values parts separate entries of the source, which are not always exact repeats. Identical values can stand only once. Marks after values point to notes of the source that are not given here.

Key:
[1] = Solubility of the lowest energy crystalline form of Drug A in water; format: physicochemical; conditions: lowest energy crystalline form presently known
Procedure: Drug A is an MTP inhibitor intended for the treatment of obesity. The solubility of the lowest energy crystalline form of Drug A presently known in water is less than 0.6 μg/ml. Drug A is nonionizable, and has a cLog P of about 7.8. These characteristics contribute to its water insoluble nature.

[2] = In vitro dissolution test in model fasted duodenal solution (MFDS); format: physicochemical; conditions: MTC 500 μg/mL; for AUC / Drug A Concentration: MFDS pH 6.5, 37° C.
Procedure: Samples of Example 1 and Control C1 were added to respective microcentrifuge tubes in duplicate. For these tests, a sufficient amount of material was added so that the maximum theoretical concentration of drug (MTC) would have been 500 μg/mL, if all of the drug had dissolved. The tubes were placed in a 37° C. temperature-controlled chamber, and 1.8 mL model fasted duodenal solution, or “MFDS” was added to each respective tube. The MFDS consisted of 1.8 mL PBS containing 0.5 wt % sodium taurocholic acid and 1-palmitoyl-2-oleyl-sn-glycero-3-phosphocholine (NaTC/POPC, with a 4/1 weight ratio) at pH 6.5 and adjusted to 290 mOsm/kg with NaCl:KCl (20.4:1 wt/wt). The samples were quickly mixed using a vortex mixer for about 60 seconds. The samples were centrifuged at 13,000 G at 37° C. for 1 minute. The resulting supernatant solution was then sampled and diluted 1:6 (by volume) with methanol and then analyzed by high-performance liquid chromatography (HPLC) using a Phenomenex Luna, phenyl-hexyl 5 μm column with a mobile phase consisting of 70:30 (vol:vol) acetonitrile: water at a flow rate of 1 ml/min. Drug concentration was measured using UV absorbance at 241 nm. The contents of each respective tube were mixed on the vortex mixer and allowed to stand undisturbed at 37° C. until the next sample was taken. […]
The concentrations of drug obtained in these samples were used to determine the maximum dissolved drug concentration at 90 minutes (MDC90) and the area under the dissolved drug concentration versus time curve (AUC90) during the initial ninety minutes.
For each test, dispersions were added to microcentrifuge tubes in duplicate. For these tests, a sufficient amount of material was added so that the maximum theoretical concentration (MTC) would have been 500 μg/mL, if all of the drug had dissolved. The tubes were placed in a 37° C. temperature-controlled chamber, and 1.8 mL PBS containing 0.5 wt % sodium taurocholic acid and 1-palmitoyl-2-oleyl-sn-glycero-3-phosphocholine (NaTC/POPC, with a 4/1 weight ratio) at pH 6.5 and 290 mOsm/kg (model fasted duodenal solution, “MFDS”) was added to each respective tube. The samples were quickly mixed using a vortex mixer for about 60 seconds. The samples were centrifuged at 13,000 G at 37° C. for 1 minute. The resulting supernatant solution was then sampled and diluted 1:6 (by volume) with methanol and then analyzed by HPLC as described above. The contents of each respective tube were mixed on the vortex mixer and allowed to stand undisturbed at 37° C. until the next sample was taken. […]
The concentrations of drug obtained in these samples were used to determine the MDC90 and the AUC90 during the initial ninety minutes.

Row | solubility [1] | AUC90 ([2]; area under dissolved drug concentration vs time curve, initial 90 minutes, MFDS) | MDC90 ([2]; maximum dissolved drug concentration, initial 90 minutes, MFDS) | AUC ([2]; time 0 min) | Drug A Concentration ([2]; time 0 min) | AUC ([2]; time 4 min) | Drug A Concentration ([2]; time 4 min) | Drug A Concentration ([2]; time 10 min) | Drug A Concentration ([2]; time 20 min) | AUC ([2]; time 40 min) | Drug A Concentration ([2]; time 40 min) | AUC ([2]; time 90 min) | AUC ([2]; time 1200 min) | Drug A Concentration ([2]; time 1200 min) | Structure (SMILES)
1 | < 0.6 µg/mL |  |  |  |  |  |  |  |  |  |  |  |  |  | CN(Cc1ccccc1)C(=O)[C@@H](NC(=O)c1cc2cc(NC(=O)c3ccccc3-c3ccc(C(F)(F)F)cc3)ccc2n1C)c1ccccc1 [Drug A, (S)—N-{2-[benzyl(methyl)amino]-2-oxo-1-phenylethyl}-1-methyl-5-[4′-(trifluoromethyl)[1,1′-biphenyl]-2-carboxamido]-1H-indole-2-carboxamide]
2 |  | 170 µg·min/mL and 200 µg·min/mL | 3.1 µg/mL and 3 µg/mL | 0 µg·min/mL | 0 µg/mL | 0 µg·min/mL | 0.0* μg/mL and 0 μg/mL | 2.6 µg/mL and 3 µg/mL | 3.1 µg/mL and 3 µg/mL | 93 µg·min/mL and 100 µg·min/mL | 2.6 µg/mL and 3 µg/mL | 170 µg·min/mL and 200 µg·min/mL | 800 µg·min/mL | 0.8 µg/mL | CN(Cc1ccccc1)C(=O)[C@@H](NC(=O)c1cc2cc(NC(=O)c3ccccc3-c3ccc(C(F)(F)F)cc3)ccc2n1C)c1ccccc1 [Example C1]
